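In this assay, cells in 96-well plates receive the compound at five concentrations for 48 hours. Endpoints are linearly interpolated between the surrounding concentrations. GI50 is the concentration that inhibits growth by half.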 Calls of active or inactive are those of the source. Cut-off read from the data, not from the text of the source: active = GI50 up to about 1.1 µM and inactive = higher.
How the values were obtained:
Test in all cases: growth of human tumour cells (NCI), 48 h
K562 = system: K562
MDA-MB-435 = system: MDA-MB-435
SN12C = system: SN12C
Malme-3M = system: Malme-3M
U-251 = system: U-251
Hs-578T = system: Hs-578T
RXF 393 = system: RXF 393
SNB-19 = system: SNB-19
HCT-15 = system: HCT-15
CAKI-1 = system: CAKI-1
LOX IMVI = system: LOX IMVI
NCI-H522 = system: NCI-H522
UACC-257 = system: UACC-257
SF-295 = system: SF-295
OVCAR-5 = system: OVCAR-5
UO-31 = system: UO-31
HCC 2998 = system: HCC 2998
OVCAR-8 = system: OVCAR-8
CCRF-CEM = system: CCRF-CEM
SK-OV-3 = system: SK-OV-3

| Compound | GI50 (K562) | GI50 (MDA-MB-435) | GI50 (SN12C) | GI50 (Malme-3M) | GI50 (U-251) | GI50 (Hs-578T) | GI50 (RXF 393) | GI50 (SNB-19) | GI50 (HCT-15) [µM] | GI50 (CAKI-1) | GI50 (LOX IMVI) | GI50 (NCI-H522) | GI50 (UACC-257) | GI50 (SF-295) | GI50 (OVCAR-5) | GI50 (UO-31) | GI50 (HCC 2998) | GI50 (OVCAR-8) | GI50 (CCRF-CEM) | GI50 (SK-OV-3) |
| --- | --- | --- | --- | --- | --- | --- | --- | --- | --- | --- | --- | --- | --- | --- | --- | --- | --- | --- | --- | --- |
| COc1ccc(Nc2nc3cc(C(F)(F)F)ccc3nc2C(=O)O)cc1 | 15.2 µM (inactive) | 22.5 µM (inactive) | 27 µM (inactive) | 18.2 µM (inactive) | 13 µM (inactive) | 21.1 µM (inactive) | 11.9 µM (inactive) | 16 µM (inactive) | 16.6 | 33.2 µM (inactive) | 16.1 µM (inactive) | 12.4 µM (inactive) | 19.1 µM (inactive) | 13 µM (inactive) | 24.2 µM (inactive) | 13.6 µM (inactive) | 14.1 µM (inactive) | 19.3 µM (inactive) |  |  |
| c1ccc2c(OCC3CO3)ccc(OCC3CO3)c2c1 (stereo not drawn) | 2 µM (inactive) | 2.44 µM (inactive) | 2.22 µM (inactive) | 7.13 µM (inactive) | 2.32 µM (inactive) | 5.32 µM (inactive) | 2.63 µM (inactive) | 8.13 µM (inactive) | 3.85 | 1.74 µM (inactive) | 0.515 µM (active) | 10.4 µM (inactive) | 7.14 µM (inactive) | 2.86 µM (inactive) | 11.2 µM (inactive) | 1.61 µM (inactive) | 11.8 µM (inactive) | 2.2 µM (inactive) | 0.27 µM (active) | 12.6 µM (inactive) |
| O=C1C(Cl)=C(NCCO)C(=O)c2c(O)ccc(O)c21 | 2.59 µM (inactive) | 2.17 µM (inactive) | 2.56 µM (inactive) | 1.4 µM (inactive) | 6.27 µM (inactive) | 6.56 µM (inactive) | 1.96 µM (inactive) | 5.33 µM (inactive) | 2.53 | > 10 µM (inactive) | 1.64 µM (inactive) | > 10 µM (inactive) | 1.33 µM (inactive) | 1.95 µM (inactive) | 2.37 µM (inactive) | 6.7 µM (inactive) | 3.1 µM (inactive) | 3.84 µM (inactive) | 4.14 µM (inactive) | > 10 µM (inactive) |
| CN1CCN(c2ccc3nc(C4=C(O)C(=O)c5c(nc(CO)n5C)C4=O)[nH]c3n2)CC1 | 59.8 µM (inactive) | > 100 µM (inactive) | > 100 µM (inactive) | > 100 µM (inactive) | 76.2 µM (inactive) | > 100 µM (inactive) | 15.8 µM (inactive) | > 100 µM (inactive) | > 100 | > 100 µM (inactive) | > 100 µM (inactive) | > 100 µM (inactive) | > 100 µM (inactive) | > 100 µM (inactive) | > 100 µM (inactive) | > 100 µM (inactive) | > 100 µM (inactive) | > 100 µM (inactive) | > 100 µM (inactive) | > 100 µM (inactive) |
| Cc1cnc2[nH]c(-c3cccc(Cl)c3)cc(=O)c2c1 | < 0.0151 µM (active) | < 0.01 µM (active) |  | 0.048 µM (active) | 0.0484 µM (active) | 0.0266 µM (active) | 0.0367 µM (active) | 0.0769 µM (active) | 0.117 | 0.0495 µM (active) | 0.0438 µM (active) | 0.0294 µM (active) | 1.05 µM (active) | 0.0169 µM (active) |  | 1.7 µM (inactive) | 0.101 µM (active) | 0.159 µM (active) | 0.0425 µM (active) | 0.0508 µM (active) |
| C=C(CN(C)C)C(=O)c1ccccc1 | 2.07 µM (inactive) | 14.1 µM (inactive) | 17.4 µM (inactive) | 2.41 µM (inactive) | 18.7 µM (inactive) | 26.2 µM (inactive) | 2.33 µM (inactive) | 30.9 µM (inactive) | 10.2 | 4.75 µM (inactive) | 7.93 µM (inactive) | 1.02 µM (active) | 11.5 µM (inactive) | 31.4 µM (inactive) | 16.5 µM (inactive) | 6.93 µM (inactive) | 18 µM (inactive) | 19.5 µM (inactive) | 0.631 µM (active) | 21.7 µM (inactive) |
| CC(=O)OCC1OC(O[C@@H]2c3c(O)c4c(c(O)c3C3=C(NN(c5ccc([N+](=O)[O-])cc5[N+](=O)[O-])[Se]3=O)[C@@]2(C)O)C(=O)c2ccccc2C4=O)C(OC(C)=O)C(OC(C)=O)C1OC(C)=O (stereo partly drawn) | 0.118 µM (active) | 0.145 µM (active) | 0.157 µM (active) | 0.157 µM (active) | 0.14 µM (active) | 0.303 µM (active) | 0.31 µM (active) | 0.323 µM (active) | 0.211 | 0.274 µM (active) | 0.147 µM (active) | 0.124 µM (active) | 0.376 µM (active) | 0.21 µM (active) | 0.51 µM (active) | 0.239 µM (active) | 0.228 µM (active) | 0.191 µM (active) | 0.0352 µM (active) | 0.281 µM (active) |
| C=C(CN(C)C)C(=O)c1ccc(Oc2ccccc2)cc1 | 1.26 µM (inactive) | 3.85 µM (inactive) | 5.37 µM (inactive) | 3.85 µM (inactive) | 10.3 µM (inactive) | 8.73 µM (inactive) | 2.4 µM (inactive) | 9.64 µM (inactive) | 3.68 | 2.54 µM (inactive) | 5.57 µM (inactive) | 1.55 µM (inactive) | 8.36 µM (inactive) | 16.7 µM (inactive) | 7.4 µM (inactive) | 3.53 µM (inactive) | 17.5 µM (inactive) | 3.28 µM (inactive) | 0.272 µM (active) | 21.3 µM (inactive) |
| CN(C)Cc1cc(C(=O)/C=C/c2ccc(/C=C/C(=O)c3cc(CN(C)C)c(O)c(CN(C)C)c3)cc2)cc(CN(C)C)c1O | 25.3 µM (inactive) | 24 µM (inactive) | 28.9 µM (inactive) | 34.6 µM (inactive) | 15.6 µM (inactive) | 58.2 µM (inactive) | 26.7 µM (inactive) | > 100 µM (inactive) | 29.6 | 39 µM (inactive) | 11.9 µM (inactive) | 10.5 µM (inactive) | 24.8 µM (inactive) | 29.2 µM (inactive) | 17.4 µM (inactive) | 71.8 µM (inactive) | 16.9 µM (inactive) | 49.3 µM (inactive) | 9.57 µM (inactive) |  |
| CCCSC1=N/C(=C\c2ccco2)C(=O)N1 |  | > 100 µM (inactive) | > 100 µM (inactive) | > 100 µM (inactive) | > 100 µM (inactive) | > 100 µM (inactive) | > 100 µM (inactive) | > 100 µM (inactive) | > 100 | > 100 µM (inactive) | > 100 µM (inactive) | > 100 µM (inactive) | > 100 µM (inactive) | > 100 µM (inactive) | > 100 µM (inactive) | > 100 µM (inactive) | > 100 µM (inactive) | > 100 µM (inactive) |  | > 100 µM (inactive) |
| COc1cc(C(c2cccc3ccccc23)N2C(=O)CCC2C(=O)NCc2ccccc2)cc(OC)c1OC (stereo not drawn) |  | > 100 µM (inactive) | > 100 µM (inactive) | > 100 µM (inactive) | > 100 µM (inactive) | 83.6 µM (inactive) | > 100 µM (inactive) | > 100 µM (inactive) | > 100 | > 100 µM (inactive) | > 100 µM (inactive) | > 100 µM (inactive) | > 100 µM (inactive) | > 100 µM (inactive) | > 100 µM (inactive) | > 100 µM (inactive) | > 100 µM (inactive) | > 100 µM (inactive) | 93.3 µM (inactive) | > 100 µM (inactive) |
| CC12CC3(O)OC(O1)C1(COC(=O)c4ccccc4)C3CC21OC1OC(CO)C(O)C(O)C1O (stereo not drawn) |  | > 100 µM (inactive) | > 100 µM (inactive) | > 100 µM (inactive) | > 100 µM (inactive) | > 100 µM (inactive) | > 100 µM (inactive) | > 100 µM (inactive) | > 100 | > 100 µM (inactive) | > 100 µM (inactive) | > 100 µM (inactive) | > 100 µM (inactive) | > 100 µM (inactive) | > 100 µM (inactive) | > 100 µM (inactive) | > 100 µM (inactive) | > 100 µM (inactive) | > 100 µM (inactive) | > 100 µM (inactive) |
| Cc1ccc(/N=N/c2c(O)ccc3cc(S(=O)(=O)O)cc(S(=O)(=O)O)c23)cc1 | > 100 µM (inactive) | > 100 µM (inactive) | > 100 µM (inactive) | > 100 µM (inactive) | > 100 µM (inactive) | > 100 µM (inactive) | > 100 µM (inactive) | > 100 µM (inactive) | > 100 | > 100 µM (inactive) |  | > 100 µM (inactive) | > 100 µM (inactive) | > 100 µM (inactive) | > 100 µM (inactive) | > 100 µM (inactive) | > 100 µM (inactive) | > 100 µM (inactive) | > 100 µM (inactive) | > 100 µM (inactive) |
| CCN(CC)CCC(=O)c1ccc(Cl)c(Cl)c1 | 24.8 µM (inactive) | 17.1 µM (inactive) | 39.3 µM (inactive) | 24.7 µM (inactive) | 36.6 µM (inactive) | 17.1 µM (inactive) | 12.5 µM (inactive) | > 100 µM (inactive) | 34.6 |  | 15 µM (inactive) | 17.3 µM (inactive) | 46.7 µM (inactive) | > 100 µM (inactive) | > 100 µM (inactive) | 41.3 µM (inactive) | 43.6 µM (inactive) | 37.2 µM (inactive) | 17.6 µM (inactive) | > 100 µM (inactive) |
| C(/Cc1ccc2c(c1)OCO2)=N\N=C1NCCN1 | 43.2 µM (inactive) | > 100 µM (inactive) | 84.7 µM (inactive) | > 100 µM (inactive) | > 100 µM (inactive) | > 100 µM (inactive) | > 100 µM (inactive) | > 100 µM (inactive) | > 100 |  | 41.2 µM (inactive) | > 100 µM (inactive) | > 100 µM (inactive) | 42.4 µM (inactive) | 57.3 µM (inactive) | 42.1 µM (inactive) | 92.3 µM (inactive) | > 100 µM (inactive) | > 100 µM (inactive) | 48.6 µM (inactive) |
